For 2 molecules, TGI results are on record in PubChem BioAssay (NCI).

This assay has as its system RXF-631 renal. Kind of assay: inhibition of tumour cell growth, NCI panel, 48 h.

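Step 1: Grow cells in 96-well plates. Step 2: Expose to compound for 48 hours at 5 concentrations. Step 3: Interpolate endpoints linearly; if unreached, use highest concentration. At the TGI there is no net growth.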

Turning to `CCCCOCc1cc(CN2CCN(C)CC2)c(O)c2ncccc12`, the TGI is > 100 µM.
The figure for `Cc1ccc(C(O)(c2ccc(C)cc2)c2ccccn2)cc1` is > 100 µM.
